Patent publication US11970494B2, “6-heteroaryloxy benzimidazoles and azabenzimidazoles as JAK2 inhibitors” (Ajax Therapeutics, Inc., priority 2021, dated 2024)

Target: T1, JAK2 (JH1 domain-catalytic, Y1007F,Y1008F) kinase (Homo sapiens, UniProt O60674, Y1007F/Y1008F)
T1 construct: made in house; host or cells: transiently transfected HEK293 cells
Experiment: JAK2 Binding Assay (JAK2 JH1 Domain Binding Assay)
Conditions: JAK2 JH1 domain binding, qPCR detection; read-out: JAK2 Kd

T1 sequence (O60674 849-1124 Y1007F/Y1008F limits assumed): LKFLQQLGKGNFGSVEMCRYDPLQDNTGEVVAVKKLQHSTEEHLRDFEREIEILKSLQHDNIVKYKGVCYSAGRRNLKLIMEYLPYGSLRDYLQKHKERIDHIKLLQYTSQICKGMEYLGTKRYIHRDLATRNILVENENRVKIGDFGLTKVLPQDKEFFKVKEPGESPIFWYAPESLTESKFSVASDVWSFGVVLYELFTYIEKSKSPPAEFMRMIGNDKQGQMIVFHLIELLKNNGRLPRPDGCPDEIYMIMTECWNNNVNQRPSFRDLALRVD

Compound	Kd
CC(=O)Nc1cc(Oc2cnc3nc(Nc4ccc(CN(C)C)c(C(F)(F)F)c4)n(C)c3c2Cl)ccn1 [Example I-94, N-(4-((7-chloro-2-((4-((dimethylamino)methyl)-3-(trifluoromethyl)phenyl)amino)-1-methyl-1H-imidazo[4,5-b]pyridin-6-yl)oxy)pyridin-2-yl)acetamide]	< 10 nM
COc1c(Oc2ccnc(NC(C)=O)c2)cnc2nc(Nc3cc(C(F)(F)F)cn(CCO)c3=O)n(C)c12 [Example I-80, N-(4-((2-((1-(2-hydroxyethyl)-2-oxo-5-(trifluoromethyl)-1,2-dihydropyridin-3-yl)amino)-7-methoxy-1-methyl-1H-imidazo[4,5-b]pyridin-6-yl)oxy)pyridin-2-yl)acetamide]	< 10 nM
CC(=O)Nc1cc(Oc2cnc3nc(Nc4cc([C@H]5CCCN5C)cc(C(F)(F)F)c4)n(C)c3c2Cl)ccn1 (single isomer, unassigned) [Example I-102-a]	< 10 nM
CC(=O)Nc1cc(Oc2cnc3nc(Nc4cc([C@H]5CCOC5)nc(C(F)(F)F)c4)n(C)c3c2C#N)ccn1 (single isomer, unassigned) [Example I-95-i]	< 10 nM
CO[C@@H]1CCN(C(=O)Nc2cc(Oc3cnc4nc(Nc5cc(C(F)(F)F)cn(C)c5=O)n(C)c4c3C#N)ccn2)C1 [Example I-13, (R)-N-(4-((7-cyano-1-methyl-2-((1-methyl-2-oxo-5-(trifluoromethyl)-1,2-dihydropyridin-3-yl)amino)-1H-imidazo[4,5-b]pyridin-6-yl)oxy)pyridin-2-yl)methoxypyrrolidine-1-carboxamide]	< 10 nM
[2H]C([2H])([2H])n1cc(C(F)(F)F)cc(Nc2nc3ncc(Oc4ccnc(NC(C)=O)c4)c(Cl)c3n2C)c1=O [Example I-82, N-(4-((7-chloro-1-methyl-2-((1-(methyl-d3)-2-oxo-5-(trifluoromethyl)-1,2-dihydropyridin-3-yl)amino)-1H-imidazo[4,5-b]pyridin-6-yl)oxy)pyridin-2-yl)acetamide]	< 10 nM
CN1CCO[C@@H](CC(=O)Nc2cc(Oc3cnc4nc(Nc5cc(C(F)(F)F)cn(C)c5=O)n(C)c4c3C#N)ccn2)C1 (single isomer, unassigned) [Example I-90-b]	< 10 nM
COCCNCC(=O)Nc1cc(Oc2cnc3nc(Nc4cc(C(F)(F)F)cn(C)c4=O)n(C)c3c2Cl)ccn1 [Example I-85, N-(4-((7-chloro-1-methyl-2-((1-methyl-2-oxo-5-(trifluoromethyl)-1,2-dihydropyridin-3-yl)amino)-1H-imidazo[4,5-b]pyridin-6-yl)oxy)pyridin-2-yl)-2-((2-methoxyethyl)amino)acetamide]	< 10 nM
CC(=O)Nc1cc(Oc2cnc3nc(Nc4cc(OC[C@H]5CCCN5C)cc(C(F)(F)F)c4)n(C)c3c2Cl)ccn1 [Example I-97, (R)-N-(4-((7-chloro-1-methyl-2-((3-((1-methylpyrrolidin-2-yl)methoxy)-5-(trifluoromethyl)phenyl)amino)-1H-imidazo[4,5-b]pyridin-6-yl)oxy)pyridin-2-yl)acetamide]	< 10 nM
CC(=O)Nc1cc(Oc2cnc3nc(Nc4cc([C@H]5CCOC5)nc(C(F)(F)F)c4)n(C)c3c2Cl)ccn1 (single isomer, unassigned) [Example I-91-a]	< 10 nM
CC(=O)Nc1cc(Oc2cnc3nc(Nc4cc(COC5CN(C)C5)cc(C(F)(F)F)c4)n(C)c3c2Cl)ccn1 [Example I-101, N-(4-((7-chloro-1-methyl-2-((3-(((1-methylazetidin-3-yl)oxy)methyl)-5-(trifluoromethyl)phenyl)amino)-1H-imidazo[4,5-b]pyridin-6-yl)oxy)pyridin-2-yl)acetamide]	< 10 nM
COC1CN(C(=O)Nc2cc(Oc3cnc4nc(Nc5cc(C(F)(F)F)cn(C)c5=O)n(C)c4c3C#N)ccn2)C1 [Example I-9, N-(4-((7-cyano-1-methyl-2-((1-methyl-2-oxo-5-(trifluoromethyl)-1,2-dihydropyridin-3-yl)amino)-1H-imidazo[4,5-b]pyridin-6-yl)oxy)pyridin-2-yl)-3-methoxyazetidine-1-carboxamide]	< 10 nM

More lines, now with the values ahead:

Kd	Compound
< 10 nM	CN(C)C(=O)Nc1cc(Oc2cnc3nc(Nc4cc5n(n4)CCCC54CC4)n(C)c3c2C#N)ccn1 [Example I-65, 3-(4-((7-cyano-2-((6′,7′-dihydro-5′H-spiro[cyclopropane-1,4′-pyrazolo[1,5-a]pyridin]-2′-yl)amino)-1-methyl-1H-imidazo[4,5-b]pyridin-6-yl)oxy)pyridin-2-yl)-1,1-dimethylurea]
< 10 nM	Cn1c(Nc2cc3n(n2)CCC32CCC2)nc2ncc(Oc3ccnc(NC(=O)O[C@@H]4CCOC4)c3)c(C#N)c21 [Example I-121, (R)-tetrahydrofuran-3-yl (4-((7-cyano-2-((5′,6′-dihydrospiro[cyclobutane-1,4′-pyrrolo[1,2-b]pyrazol]-2′-yl)amino)-1-methyl-1H-imidazo[4,5-b]pyridin-6-yl)oxy)pyridin-2-yl)carbamate]
< 10 nM	CC(=O)Nc1cc(Oc2cnc3nc(Nc4ccc([C@@H]5CCCN5C)c(C(F)(F)F)c4)n(C)c3c2C#N)ccn1 (single isomer, unassigned) [Example I-109-b]
< 10 nM	CN(C)C(=O)Nc1cc(Oc2cnc3nc(Nc4cc5n(n4)CCCC5(F)F)n(C)c3c2C#N)ccn1 [Example I-21, 3-(4-((7-cyano-2-((4,4-difluoro-4,5,6,7-tetrahydropyrazolo[1,5-a]pyridin-2-yl)amino)-1-methyl-1H-imidazo[4,5-b]pyridin-6-yl)oxy)pyridin-2-yl)-1,1-dimethylurea]
< 10 nM	Cn1c(Nc2cc3n(n2)CCCC3(F)F)nc2ncc(Oc3ccnc(NC(=O)O[C@@H]4CCOC4)c3)c(C#N)c21 [Example I-37, (R)-tetrahydrofuran-3-yl(4-((7-cyano-2-((4,4-difluoro-4,5,6,7-tetrahydropyrazolo[1,5-a]pyridin-2-yl)amino)-1-methyl-1H-imidazo[4,5-b]pyridin-6-yl)oxy)pyridin-2-yl)carbamate]
< 10 nM	COC(=O)Nc1cc(Oc2cnc3nc(Nc4cc5n(n4)CCCC54CC4)n(C)c3c2C#N)ccn1 [Example I-63, methyl (4-((7-cyano-2-((6′,7′-dihydro-5′H-spiro[cyclopropane-1,4′-pyrazolo[1,5-a]pyridin]-2′-yl)amino)-1-methyl-1H-imidazo[4,5-b]pyridin-6-yl)oxy)pyridin-2-yl)carbamate]
50 to 1000 nM	COC(=O)Nc1cc(Oc2cnc3nc(Nc4cc5n(n4)CCN(C)C5=O)n(C)c3c2C#N)ccn1 [Example I-41, Methyl(4-((7-cyano-1-methyl-2-((5-methyl-4-oxo-4,5,6,7-tetrahydropyrazolo[1,5-a]pyrazin-2-yl)amino)-1H-imidazo[4,5-b]pyridin-6-yl)oxy)pyridin-2-yl)carbamate]
< 10 nM	Cn1c(Nc2cc3n(n2)CCCC3(F)F)nc2ncc(Oc3ccnc(NC(=O)N4CC(O)C4)c3)c(C#N)c21 [Example I-35, N-(4-((7-cyano-2-((4,4-difluoro-4,5,6,7-tetrahydropyrazolo[1,5-a]pyridin-2-yl)amino)-1-methyl-1H-imidazo[4,5-b]pyridin-6-yl)oxy)pyridin-2-yl)-3-hydroxyazetidine-1-carboxamide]
1000 to 5000 nM	CN1CCn2nc(Nc3nc4ncc(Oc5ccnc(NC(=O)O[C@H]6CCOC6)c5)c(Cl)c4n3C)cc2C1=O [Example I-55, (S)-tetrahydrofuran-3-yl(4-((7-chloro-1-methyl-2-((5-methyl-4-oxo-4,5,6,7-tetrahydropyrazolo[1,5-a]pyrazin-2-yl)amino)-1H-imidazo[4,5-b]pyridin-6-yl)oxy)pyridinyl)carbamate]
